The source of these data is ChEMBL document CHEMBL1201862, “PubChem BioAssay data set” (2004).

Some test systems named below: UACC-257; MDA-N; SNB-19; CCRF-CEM; RXF 393; Hs-578T; UACC-62; OVCAR-5; SNB-75; NCI-H226; HOP-92; SN12C; OVCAR-3; HCC 2998; U-251; SK-OV-3; NCI-H460; Malme-3M.
What all share (test): DTP human tumour cell line panel, 48 h

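Growth conditions: 96-well plates. Treatment: test compound, 48 hours, 5 concentrations. Analysis: linear interpolation between bracketing concentrations; unreached endpoints set to highest concentration. The concentration for 50% growth inhibition is given as GI50.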 Active and inactive are the calls of the source. Cut-off read from the data, not from the text of the source: active = GI50 up to about 1.1 µM and inactive = higher.

For `Cc1c(C)n(-c2ccccc2)c2nc(S(C)(=O)=O)nc(S(C)(=O)=O)c12`, the GI50 is 1.64 µM (inactive) in the assay on UACC-257; 1.64 µM (inactive) in the assay on MDA-N; 3.3 µM (inactive) in the assay on SNB-19; 0.634 µM (active) with CCRF-CEM; 0.475 µM (active) in the assay with RXF 393; 16.1 µM (inactive) with Hs-578T. The GI50 with UACC-62 was 3.28 µM (inactive); with OVCAR-5 it was 1.82 µM (inactive); in the assay on SNB-75, 19.3 µM (inactive); in the assay on NCI-H226 it was 21.4 µM (inactive); with HOP-92 it was 1.61 µM (inactive); in the assay on SN12C it was 17.8 µM (inactive). Further, the GI50 is 1.6 µM (inactive) in the assay with OVCAR-3; 23.3 µM (inactive) with HCC 2998; 5.9 µM (inactive) in the assay with U-251; 19.6 µM (inactive) in the assay on SK-OV-3; 16.9 µM (inactive) in the assay with NCI-H460; 1.4 µM (inactive) in the assay on Malme-3M.
Turning to `O=c1[nH]c(=O)n(C2OC(CO)C(O)C2O)c2c1CCCC2` (configuration not stated), the GI50 in the assay with UACC-257, in the assay with MDA-N, with SNB-19, with CCRF-CEM, in the assay with RXF 393 and with Hs-578T was > 100 µM (inactive) each time. In addition, the GI50 in the assay on UACC-62, with OVCAR-5, in the assay with SNB-75, in the assay on NCI-H226, in the assay on HOP-92 and in the assay on SN12C was > 100 µM (inactive) in each case. For the same compound, the GI50 in the assay with OVCAR-3, in the assay on HCC 2998, in the assay on U-251, in the assay on SK-OV-3, in the assay on NCI-H460 and in the assay with Malme-3M was > 100 µM (inactive) in each case.
For `C=C(COCO)C(C)=O`, the GI50 was 15.3 µM (inactive) with UACC-257; 16.9 µM (inactive) with MDA-N; > 66.8 µM (inactive) in the assay with SNB-19; 2.86 µM (inactive) in the assay on CCRF-CEM; 14.3 µM (inactive) with RXF 393; 23.9 µM (inactive) with Hs-578T. For the same compound, the GI50 in the assay on UACC-62 was 17.2 µM (inactive); in the assay with OVCAR-5, 20.5 µM (inactive); in the assay with SNB-75, 16.3 µM (inactive); in the assay on NCI-H226, > 61 µM (inactive); in the assay on HOP-92 it was 27 µM (inactive); in the assay with SN12C it was 18.4 µM (inactive). Moreover, the GI50 in the assay on OVCAR-3 is 11.6 µM (inactive); in the assay with HCC 2998, 27.9 µM (inactive); in the assay on U-251, 24.5 µM (inactive); in the assay with SK-OV-3 it was 48.9 µM (inactive); with NCI-H460, 22 µM (inactive); in the assay with Malme-3M, 9.73 µM (inactive).
`O=C(CCCN1CCC2(CC1)CC(c1ccccc1)OC2=O)c1ccc(F)cc1` (configuration not stated): the GI50 was 23.6 µM (inactive) in the assay with UACC-257; 49.4 µM (inactive) in the assay with MDA-N; 39.2 µM (inactive) in the assay on SNB-19; 41.6 µM (inactive) with CCRF-CEM; 66.2 µM (inactive) in the assay with RXF 393; 40.8 µM (inactive) in the assay with Hs-578T. Moreover, the GI50 in the assay with UACC-62 was 25.2 µM (inactive); with OVCAR-5, 45.9 µM (inactive); with SNB-75, 16.7 µM (inactive); in the assay on NCI-H226 it was 53.7 µM (inactive); in the assay on HOP-92, 26.9 µM (inactive); with SN12C, 48.6 µM (inactive). Besides, the GI50 is 33.3 µM (inactive) in the assay on OVCAR-3; 23.4 µM (inactive) in the assay on HCC 2998; 74.5 µM (inactive) in the assay on U-251; > 100 µM (inactive) in the assay with SK-OV-3; 48.1 µM (inactive) in the assay on NCI-H460; 17.8 µM (inactive) in the assay on Malme-3M.
